Data published in patent US10668056B2, “Pharmaceutical composition comprising indole derivatives, process for preparation and use thereof” (VIVOLUX AB, priority 2015, dated 2020).

Legend:
[1] = system: HCT116 (Colon carcinoma); assay: FMCA cytotoxicity, HCT116; assay type: cell-based, human; conditions: Homo sapiens, HCT-116, 72 h
Method: (§1) The inventors also set out to characterize activity of the compounds A, B and C in cell lines representing cancer of different origin. The specific assays used and the conclusions from the mechanistic evaluation have previously been described in detail (Zhang et al. 2014). Compounds A, B and C (See FIG. 4) were evaluated for cytotoxicity expressed as survival index (SI) in six human tumor cell lines using the cell based fluorometric micro culture cytotoxicity assay (FMCA) as previously described in detail (Lindhagen et al, 2008). The method is based on measurement of fluorescent fluorescein, generated from hydrolysis of FDA by viable cells with intact plasma membrane. The fluorescence is proportional to the number of intact viable cells.
(§2) The cell lines were cultivated in the respective cell medium recommended by the provider. The medium was supplemented with 10% heat-inactivated fetal bovine serum, 2 mmol/L L-glutamine, 100 μg/mL streptomycin and 100 U/mL penicillin (all from Sigma-Aldrich). The cell line was cultured at 37° C. in a humidified atmosphere containing 5% CO2.
(§3) FMCA analysis in brief, 2500 cells per well were seeded into 384-well microplates and incubated over night before treatment with compounds. Compounds were added using acoustic liquid transfer (Echo 550, LabCyte). The plates were incubated at 37° C. for 72 h, and then washed and FDA was added to the wells followed by 50 min of incubation at 37° C. The fluorescence, which is proportional to the number of living cells in each well, was measured at 485/520 nm in a Fluoroskan instrument (Labsystems, GMI, Ramsey, Minn.). Cell survival is presented as Survival Index (SI), defined as the fluorescence value in the compound-treated wells analysed as percentage of the value in the control wells, with blank values subtracted. Quality criteria included a signal/blank ratio >10 and a coefficient of variation (CV) in control and blank wells <30%. Graph Pad Prism (San Diego, Calif., USA). All experiments were performed twice, and each concentration was evaluated in quadruplicates in each experiment. […]

[2] = system: RKO (Colon carcinoma); assay: FMCA cytotoxicity, RKO; assay type: cell-based, human; conditions: Homo sapiens, 72 h
Method: as §1, §2, §3

[3] = system: HeLa (Cervix Adenocarcinoma); assay: FMCA cytotoxicity, HeLa; assay type: cell-based, human; conditions: Homo sapiens, 72 h
Method: as §1, §2, §3

[4] = system: HepG2 (Hepatocellular Carcinoma); assay: FMCA cytotoxicity, HepG2; assay type: cell-based, human; conditions: Homo sapiens, 72 h
Method: as §1, §2, §3

[5] = system: CCRF-CEM (Acute lymphoblastic leukemia); assay: FMCA cytotoxicity, CCRF-CEM; assay type: cell-based, human; conditions: Homo sapiens, 72 h
Method: as §1, §2, §3

[6] = system: THP-1 (Acute Monocytic Leukemia); assay: FMCA cytotoxicity, THP-1; assay type: cell-based, human; conditions: Homo sapiens, 72 h
Method: as §1, §2, §3

[7] = system: six human tumor cell lines; assay: FMCA cytotoxicity, six human tumor cell lines (overall); assay type: cell-based; conditions: Table 6 and FIG. 4
Method: as §1, §2, §3

Q: For `Cc1cccc2c1[nH]c1nc(NN=C(CC(C)(C)C)c3ccccn3)nnc12` [Compound C, 2-(3,3-dimethyl-N-{6-methyl-5H-[1,2,4]triazino[5,6-b]indole-3-yl}butanehydrazonoyl)pyridine], which IC50 [1] is on record?
A: ~1000 nM

Q: And the IC50 [2]?
A: < 250 nM

Q: And the IC50 [3]?
A: ~10000 nM

Q: And the IC50 [4]?
A: < 250 nM

Q: And the IC50 [5]?
A: < 250 nM

Q: And the IC50 [6]?
A: < 250 nM

Q: And the “activity on cancer cell lines” value [7]?
A: strong activity

Q: With `CC/C(=N\Nc1nnc2c(n1)[nH]c1c(C)cccc12)c1ccccn1` [Compound B, 2-[(1E)-1-(2-{6-methyl-5H-[1,2,4]triazino[5,6-b]indole-3-yl}hydrazin-1-ylidene)propyl]pyridine] as the compound, how does the IC50 [1] read?
A: ~1000 nM

Q: And the IC50 [2]?
A: < 250 nM

Q: What about the IC50 [3] of the same compound?
A: ~20000 nM

Q: And the IC50 [4]?
A: < 250 nM

Q: What about the IC50 [5] of the same compound?
A: < 250 nM

Q: And the IC50 [6]?
A: < 250 nM

Q: And the “activity on cancer cell lines” value [7]?
A: strong activity
